Test results as given in PubChem BioAssay (NCI).
Values joined by “and” are separate entries in the source; they are usually repeats but may differ in a detail not shown here. Equal values may be shown once.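 Assay format: 96-well plates, 48-hour exposure. GI50 is the concentration that inhibits growth by half. TGI: total growth inhibition.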

Legend:
Assay in all cases: NCI tumour cell line growth inhibition, 48 h
[1] = test system: HL-60(TB) leukemia
[2] = test system: HOP-92 NSCLC
[3] = test system: IGROV1 ovarian
[4] = test system: MCF7 breast
[5] = test system: NCI/ADR-RES ovarian
[6] = test system: OVCAR-8 ovarian
[7] = test system: SNB-75 CNS
[8] = test system: UO-31 renal
[9] = test system: MALME-3M melanoma
[10] = test system: T-47D breast

Compound	GI50 [1] [µM]	TGI [1]	GI50 [2] [µM]	TGI [2] [µM]	GI50 [3] [µM]	TGI [3]	GI50 [4] [µM]	TGI [4] [µM]	GI50 [5] [µM]	TGI [5] [µM]	GI50 [6] [µM]	TGI [6] [µM]	GI50 [7] [µM]	TGI [7]	GI50 [8] [µM]	TGI [8]	TGI [9]	GI50 [9] [µM]	GI50 [10] [µM]	TGI [10] [µM]
Nc1cc(N)c2nc(-c3ccccc3)c(NCc3ccc(F)cc3)nc2c1	3.85	> 100 µM	3.32	6.91	3.11	> 100 µM	2.99	> 100	2.46	5.76	2.66	6.07	2.16	5.06 µM	3.81	> 100 µM				
O=c1[nH]c(-c2ccc(-c3nc4cc([N+](=O)[O-])ccc4c(=O)[nH]3)cc2)nc2cc([N+](=O)[O-])ccc12		> 100 µM		> 100		> 100 µM						> 100		> 100 µM		> 100 µM	> 100 µM			
CCOC(=O)C1=C(Nc2cccc3ccccc23)OC/C1=N\NC(=O)c1ccccc1O		37.8 µM		46.1		29.8 µM						67.8		39.5 µM		> 87.6 µM	> 100 µM			
CSc1ccccc1C#Cc1ccccc1C#CCCCCO			9.76	25.1	14	27.5 µM	19.1	39.2	11.5	31.1	18.7	41.7	13.8	28 µM	12.6	25.4 µM	36.5 µM	15.2	15	34.5
O=C(Nc1nc(=S)c2c(ncn2CCO)[nH]1)c1ccccc1		> 100 µM		> 100		> 100 µM						> 100		> 100 µM		> 100 µM	> 100 µM			
Cc1c(Cl)cccc1NC1=C(Cl)C(=O)N(Cc2ccccc2)C1=O			1.56	14.9	19.7	56.5 µM	25.3	59	5	20.9	9.23	23.8			6.96	24.4 µM			25.4	> 100
CS/C(=N\c1nccs1)NC(=O)c1cccc(Cl)c1		> 100 µM		> 100		> 100 µM						> 100		> 100 µM		> 100 µM	> 100 µM			
CC12CC(OC(=O)[C@]1(C)O)[C@@H]([C@]1(O)CC[C@H]3[C@@H]4C[C@H]5O[C@]56[C@@H](O)C=CC(=O)[C@]6(C)[C@H]4CC[C@@]31C)C2 (stereo partly drawn)				8.08		35.1 µM		17.2		68.5		13.3				16.8 µM				32.9
C=CCC(OCCOCC)c1cc(OCCOCC)ccc1OC (stereo not drawn)		> 100 µM		> 100		> 100 µM						> 100		> 100 µM		> 100 µM	> 100 µM			
CCCC(Sc1ccccc1)P(=O)(c1ccccc1)c1ccccc1 (stereo not drawn)		52.6 µM		60.1								> 100		> 100 µM		> 100 µM				
COC(=O)c1cc(-c2cccn2C)c2c(c1C(=O)OC)c1ccccc1n2C		> 100 µM		> 100		> 100 µM						> 100		> 100 µM		> 100 µM	> 100 µM			
CCC1CCc2c(OC)ccc(OCC(=O)O)c2C1=O (stereo not drawn)		> 100 µM				> 100 µM						> 100		> 100 µM		> 100 µM	> 100 µM			
CCOC(=O)c1nc(Nc2ccc(Cl)cc2)c2ccccc2n1	> 50	> 50 µM	9.49	26.8	10.7	26 µM	13.6	> 50	13.2	22.9	12.3	28.5	11.9	29.5 µM	8.87	18.8 µM			8.36	22.5
COC(=O)C1=C(C(=O)OC)SC(=C(N=Nc2ccccc2)c2ccccc2)S1		> 100 µM		> 100		> 100 µM						> 100		> 100 µM		> 100 µM	> 100 µM			
C=C1CCC2[C@@H](CCC3[C@]2(C)CCC[C@]3(C)C(=O)OC)C1CCO (stereo partly drawn)		9.36 µM		20.1		29.6 µM						37.7		19.7 µM		31.7 µM	35.8 µM			
O=C1c2ccccc2CC1C1(O)C(=O)Nc2ccccc21 (stereo not drawn)		> 100 µM		> 100		> 100 µM						> 100		> 100 µM		> 100 µM	> 100 µM			
Cc1ccc(Sc2ccc(C)cc2[N+](=O)[O-])c([N+](=O)[O-])c1		> 100 µM		> 100		> 100 µM						> 100		> 100 µM		> 100 µM	> 100 µM			
COc1cc(/C=C/C(=O)c2sc(NNC(C)=O)nc2C)ccc1O		> 100 µM		> 100		> 100 µM						> 100		> 100 µM		> 100 µM	> 100 µM			
C=CC1C(OC2OC(CO)C(O)C(O)C2O)OC=C(C(=O)OC)C1CC=O (stereo not drawn)		> 100 µM				> 100 µM								> 100 µM		> 100 µM	> 100 µM			
CC(=O)O[C@H]1CC[C@@]2(C)[C@@H](CC[C@@H]3[C@@H]2CC[C@]2(C)C=C(C=O)C[C@@H]32)C1	2.2	5.87 µM			3.73	14.6 µM	2.58	10.8	5.35	> 100	2.96	9.59	9.36	22.2 µM	18.8	35.3 µM	12.6 µM	3.64	3.74	15.5
CC1CCC(C(C)C)C(O[C@@H]2OC(=O)C[C@@H]2Sc2ccccc2)C1 (stereo partly drawn)		43.6 µM				> 100 µM						45.3		98.3 µM			58.7 µM			

Compound	GI50 [1] [µM]	TGI [1]	GI50 [2] [µM]	TGI [2] [µM]	GI50 [3] [µM]	TGI [3]	GI50 [4] [µM]	TGI [4] [µM]	GI50 [5] [µM]	TGI [5] [µM]	GI50 [6] [µM]	TGI [6] [µM]	GI50 [7] [µM]	TGI [7]	GI50 [8] [µM]	TGI [8]	TGI [9]	GI50 [9] [µM]	GI50 [10] [µM]	TGI [10] [µM]
Cn1cc(-c2ccc(-c3cn(C)c4ccc(Cl)cc34)s2)c2cc(Cl)ccc21	> 100	> 100 µM			> 100	> 100 µM	> 100	> 100	> 100	> 100	> 100	> 100	> 100	> 100 µM	> 100	> 100 µM	> 100 µM	> 100		
CC(C)N1C(NNC(=O)c2cnccn2)=NS(=O)(=O)c2ccccc21	> 100	> 100 µM			> 100	> 100 µM	> 100	> 100	> 100	> 100	> 100	> 100	94.5	> 100 µM	> 100	> 100 µM	> 100 µM	> 100	> 100	> 100
C1CCOC2(CCC3(CC2)OCCCCO3)OC1		> 100 µM				> 100 µM						> 100		> 100 µM		> 100 µM	> 100 µM			
Cc1cn2c(/C=N/Nc3ccccn3)c(-c3ccc(Cl)c([N+](=O)[O-])c3)nc2s1	> 50	> 50 µM	12.9	> 50	5.62	21.8 µM	3.27	> 50	11.3	30.9	8.96	19.8			13.1	> 50 µM			> 50	> 50
O=C(CN(/C=C/C(=O)C(F)(F)F)c1ccccc1)c1ccc(Cl)c(Cl)c1			17.7	38.5	5.76	19.7 µM	5.2	55.3	15.2	31.3	16.6	33			11.4	24.3 µM	32.1 µM	12.8	15.8	55.7
O=C(CCc1cc(-c2ccccc2)nc(=S)[nH]1)Nc1ccccc1[N+](=O)[O-]		> 100 µM		> 100		> 100 µM						> 100		> 100 µM		> 100 µM	> 100 µM			
CC#CC1C(OC(=O)c2ccccc2)CCCC1(CI)N=[N+]=[N-] (stereo not drawn)		42.2 µM		> 100		> 100 µM						> 100		> 100 µM		> 100 µM	> 100 µM			
CC(=O)NC1CC2Oc3ccc(C)cc3C(C)(O2)C1O (stereo not drawn)		> 100 µM				> 100 µM						> 100		> 100 µM		> 100 µM	> 100 µM			
N=C(N)c1ccc(COc2ccccc2OCc2ccc(C(=N)N)cc2)cc1			11.4	86.2	61.6	> 100 µM	46.5	> 100	> 100	> 100	48.2	> 100	73.8	> 100 µM	> 100	> 100 µM	52.2 µM	19.2	58.4	> 100
CCOC(=O)c1nc(-c2ccccc2)oc1OCC		> 100 µM				> 100 µM						> 100		> 100 µM						
CCOc1ccccc1/C=N\N=C(\N)N/N=C/c1ccccc1OCC	1.33	8.92 µM			4.76	> 100 µM	1.01	> 100	2.62	> 100	3.76	> 100	1.78	8.05 µM	2.97	> 100 µM			3.73	> 100
CC(C)C[C@H](NC(=O)[C@@H](O)[C@H](N)Cc1ccc([N+](=O)[O-])cc1)C(=O)O			> 25	> 25	> 25	> 25 µM	> 25	> 25	> 25	> 25	> 25	> 25	> 25	> 25 µM	> 25	> 25 µM	> 25 µM	> 25	> 25	> 25
C[C@@H](NC1CCC[C@H]1O)c1ccccc1 (stereo partly drawn)		> 100 µM		> 100		> 100 µM						> 100		> 100 µM		> 100 µM	> 100 µM			
CCN(CC)CC(C(=O)Nc1c(C)cccc1C)/C(C)=N\NC(=O)c1ccncc1 (stereo not drawn)				> 100		> 100 µM						> 100		> 100 µM		> 100 µM	> 100 µM			
COc1cc(C)c(O)c(C(=O)O)c1						> 100 µM						> 100		> 100 µM		> 100 µM	> 100 µM			
C/C=C/C=C/CCCCCCCCCCCCCC1(OC)C=CC(CC(=O)OC)OO1 (stereo not drawn)		18.4 µM		4.12	0.509	1.03 µM					3.99	14.5		22.4 µM		7.94 µM	50.8 µM			
CCCCCCCOc1c(OC)cc(C2CC(=O)Nc3c2c(C)nn3-c2nc3ccccc3[nH]2)cc1OC (stereo not drawn)	2.88	9.03 µM	2.34	7.68	2.74	10.1 µM	2.91	> 100	3.83	> 100	4.28	> 100			1.63	4.82 µM			3.95	> 100
CN(C)c1ccc(C(=C2C=CC(=[N+](C)C)C=C2)c2ccc(N(C)C)cc2)cc1	0.16	0.493 µM and 0.173 µM	0.145	0.461	0.264	2.26 µM and 1.4 µM			0.41	2			0.112	0.581 µM and 1.03 µM	0.284	1.23 µM and 1.01 µM	0.879 µM and 0.773 µM	0.216	0.157	1.12
N#Cc1cc([N+](=O)[O-])ccc1NC(=O)/C(=N/N)C(C(=O)c1ccc(Cl)c(Cl)c1)C1OC(=O)c2ccccc21 (stereo not drawn)				60		> 100 µM						> 100				> 100 µM	> 100 µM			
O=C1CCC2(c3ccccc3)Nc3ncccc3N12 (stereo not drawn)		> 100 µM		> 100		> 100 µM						> 100		> 100 µM		> 100 µM	> 100 µM			
CC(=O)Nc1ccc(/C=C/C(=O)c2sc(-c3nc(C)c(C(=O)/C=C/c4ccc(NC(C)=O)cc4)s3)nc2C)cc1		> 100 µM				> 100 µM						> 100				> 100 µM	> 100 µM			
